Patent publication US20260337153A1, “IONIZABLE AMINE LIPIDS” (Intellia Therapeutics, Inc., priority 2023, published 2026)
Several values for one entry are separate records, joined by “and”; a condition that tells them apart may be missing. Identical values can stand only once. Like-named read-outs stand apart in the source and are kept apart here.

What was measured:
[1] = pKa of unformulated amine lipid by TNS fluorescence; type: physicochemical
Method: The pKa of each amine lipid was determined according to the method in Jayaraman, et al. (Angew Chem Int Ed Engl 51(34), 2012, 8529-8533) with the following adaptations. The pKa was determined for unformulated amine lipid in ethanol. Lipid stock solutions (2.94 mM) were diluted into Sodium Phosphate Buffers (0.1 M, Boston Bioproducts) of different pH (pH-range: 4.5-9.0) yielding a final lipid concentration of approx. 100 μM. The test samples were supplemented with TNS {6-(p-Toluidino)-2-naphthalenesulfonic acid sodium salt}, incubated and the fluorescence intensity was measured using excitation and emission wavelengths of 321 nm and 448 nm, respectively. The recorded data were normalized and the respective pKa values were derived from sigmoidal fitting.

[2] = LNP encapsulation efficiency of RNA (Ribogreen fluorescence assay); type: physicochemical; settings: sgRNA:mRNA 1:2
Method: LNP compositions are analyzed for average particle size, polydispersity index (pdi), total RNA content, encapsulation efficiency of RNA, and zeta potential. LNP compositions may be further characterized by lipid analysis, AF4-MALS, NTA, and/or cryo-EM.
Encapsulation efficiency is calculated as (Total RNA−Free RNA)/Total RNA. A fluorescence-based assay (Ribogreen®, ThermoFisher Scientific) is used to determine total RNA concentration and free RNA. LNP samples are diluted appropriately with 1×TE buffer containing 0.2% Triton-X 100 to determine total RNA or 1×TE buffer to determine free RNA. Standard curves are prepared by utilizing the starting RNA solution used to make the compositions and diluted in 1×TE buffer+/−0.2% Triton-X 100. Diluted RiboGreen® dye (according to the manufacturer's instructions) is then added to each of the standards and samples and allowed to incubate for approximately 10 minutes at room temperature, in the absence of light. A SpectraMax M5 Microplate Reader (Molecular Devices) is used to read the samples with excitation, auto cutoff and emission wavelengths set to 488 nm, 515 nm, and 525 nm respectively. Total RNA and free RNA are determined from the appropriate standard curves. Alternatively, the total RNA concentration can be determined by a reverse-phase ion-pairing (RP-IP) HPLC method. Triton X-100 is used to disrupt the LNPs, releasing the RNA. The RNA is then separated from the lipid components chromatographically by RP-IP HPLC and quantified against a standard curve using UV absorbance at 260 nm.
In vivo editing efficiency for materials delivered with formulations including various amine lipid (or ionizable lipid) compounds in Experiments 1 through 14 as described in Tables 3 and 4 was assessed. Editing was measured using G000534 (SEQ ID NO: 5) which targets the rat TTR gene. Lipids described above were assessed for efficacy through in vivo editing experiments. LNPs were formulated at a 1:2 w/w ratio of sgRNA (SEQ ID NO: 5) and Cas9 mRNA (SEQ ID NO: 3). In Experiments 1 through 13, lipid components of the LNP are formulated in a molar ratio of 50% ionizable lipid, 38% cholesterol, 9% DSPC, and 3% PEG2K-DMG. In Experiment 14, lipid components of the LNP are formulated in a molar ratio of 50% ionizable lipid, 38% cholesterol, 9% DSPC, and 3% C13 Ether. The final LNPs used in different in vivo editing experiments were characterized to determine the encapsulation efficiency (% E), polydispersity index (PDI), and average particle size (Z-avg and number mean) according to the analytical methods provided above. The pKa values of each of the following ionizable lipids were also measured to be in the range of about 5.8 to about 7.6.
In vivo editing efficiency for materials delivered with formulations including various combinations of amine lipid (or ionizable lipid) and PEG lipid compounds was assessed as described in Tables 5 and 6. Editing was measured using G000534 (SEQ ID NO: 5) which targets the rat TTR gene. Lipids described above were assessed for efficacy through in vivo editing experiments. LNPs were formulated at a 1:2 w/w ratio of sgRNA (SEQ ID NO: 5) and Cas9 mRNA (SEQ ID NO:3). Lipid components of the LNP are formulated in a molar ratio of 50% ionizable lipid, 38% cholesterol, 9% DSPC, and 3% of various PEG lipids (e.g., PEG2K-DMG, C13 Ether, C14 Ether). The final LNPs used in different in vivo editing experiments were characterized to determine the encapsulation efficiency (% E), polydispersity index (PDI), and average particle size (Z-avg and number mean) according to the analytical methods provided above. The pKa values of each of the following ionizable lipids were also measured to be in the range of about 5.8 to about 7.6.
In vivo editing efficiency for materials delivered with formulations including various amine lipid (or ionizable lipid) compounds as described in Tables 7 and 8 was assessed. […]

[3] = sodium phosphate buffer, Table 2, unformulated amine lipid, TNS, read-out: Lipid pKa
[4] = Table 3, Experiments 1-13, LNP 50% ionizable lipid, 38% cholesterol, 9% DSPC, 3% PEG2K-DMG
[5] = LNP with 50% ionizable lipid, 38% cholesterol, 9% DSPC, 3% C13 Ether (LNP #1, Compound 53: 3% PEG2K-DMG instead)
[6] = sodium phosphate buffer, additional ionizable lipids (53-61), unformulated amine lipid, TNS, read-out: Lipid pKa

Row | SMILES | pKa [1, 3] | % E (encapsulation efficiency) [2, 4] | % E (encapsulation efficiency) [2, 5] | further results
1 | CCCCC/C=C\C/C=C\CCCCCCCC(=O)OCC(CCCCCCCCC(=O)OC(CCCCCCCC)CCCCCCCCC)COC(=O)CCC(CCCCCCCC)OC(=O)NCCN(C)CC (centres unmarked) [Compound 24, 3-methyl-15-(9-(octadecan-9-yloxy)-9-oxononyl)-9-octyl-7,12-dioxo-8,13-dioxa-3,6-diazahexadecan-16-yl (9Z,12Z)-octadeca-9,12-dienoate] | 6.1 | 98% | – | –
2 | CCCCCCCCC(CCCCCCCC)OC(=O)CCCCCC(=O)OCC(COC(=O)CCCCCC(=O)OC(CCCCCCCC)CCCCCCCC)COC(=O)OCCCN1CCCC1 [Compound 64, 7,7′-di(heptadecan-9-yl) O′1,O1-(2-((((3-(pyrrolidin-1-yl)propoxy)carbonyl)oxy)methyl)propane-1,3-diyl) di(heptanedioate)] | – | – | 99% | pKa ([1]; read-out: pKa): 6.4
3 | CCCCC/C=C\C/C=C\CCCCCCCC(=O)OCC(CCCCCCCCC(=O)OC(CCCCCCCC)CCCCCCCCC)COC(=O)CCC(CCCC)OC(=O)NCCN(C)CC (centres unmarked) [Compound 26, 9-butyl-3-methyl-15-(9-(octadecan-9-yloxy)-9-oxononyl)-7,12-dioxo-8,13-dioxa-3,6-diazahexadecan-16-yl (9Z,12Z)-octadeca-9,12-dienoate] | 6.36 | 98% | – | –
4 | CCCCCCCCC(CCCCCCCC)OC(=O)CCCCCCC(=O)OCC(COC(=O)CCCCCCC(=O)OC(CCCCCCCC)CCCCCCCC)COC(=O)OCCCN1CCCC1 [Compound 65, 8,8′-di(heptadecan-9-yl) O′1,O1-(2-((((3-(pyrrolidin-1-yl)propoxy)carbonyl)oxy)methyl)propane-1,3-diyl) di(octanedioate)] | – | – | 99% | pKa ([1]; read-out: pKa): 6.4
5 | CCCCCCCCC(CCCCCCCC)OC(=O)CCCCCCC(=O)OCC(COC(=O)CCCCCCC(=O)OC(CCCCCCCC)CCCCCCCC)COC(=O)NCCCN(CC)CC [Compound 61] | – | 100% | – | pKa [1, 6]: 7.4
6 | CCCCC/C=C\C/C=C\CCCCCCCC(=O)OCC(COC(=O)CCC(OCCCCCCCC)OCCCCCCCC)COC(=O)OCCCN(CC)CC (centres unmarked) [Compound 53] | – | 98% and 99% and 94% and 97% | 98% | pKa [1, 6]: 6.2; % E (encapsulation efficiency) ([2]; Table 5, PEG lipid C13 Ether): 97%; % E (encapsulation efficiency) ([2]; Table 5, PEG lipid C14 Ether): 99%; % E (encapsulation efficiency) ([2]; Table 5, PEG lipid PEG2K-DMG): 97%
7 | CCCCC/C=C\C/C=C\CCCCCCCC(=O)OCC(COC(=O)CCCC(=O)OC(CCCCCCCC)CCCCCCCC)COC(=O)OCCCN(CC)CC (centres unmarked) [Compound 56] | – | 95% and 97% | – | pKa [1, 6]: 6.1
8 | CCCCCCCCC(CCCCCCCC)OC(=O)CCCC(=O)OCC(COC(=O)CCCC(=O)OC(CCCCCCCC)CCCCCCCC)OC(=O)NCCN(CC)CC [Compound 35, O,O′-(2-(((2-(diethylamino)ethyl)carbamoyl)oxy)propane-1,3-diyl) di(heptadecan-9-yl) diglutarate] | 6.83 | – | – | % E (encapsulation efficiency) ([2]; Table 3, Experiment 14, LNP with 3% C13 Ether): 99%
9 | CCCCCCCCC(CCCCCCCC)OC(=O)CCCCCC(=O)OCC(CCCCCCCCC(=O)OCC(CCCC)CCCCCC)COC(=O)NCCN(CC)CC (centres unmarked) [Compound 51, 1-(11-((2-butyloctyl)oxy)-2-((((2-(diethylamino)ethyl)carbamoyl)oxy)methyl)-11-oxoundecyl) 7-(heptadecan-9-yl) heptanedioate] | 6.39 | 99% | – | –
10 | CCCCCCCCC(CCCCCCCC)OC(=O)CCCCC(=O)OCC(COC(=O)CCCCC(=O)OC(CCCCCCCC)CCCCCCCC)COC(=O)NCCN(CC)CC [Compound 68, O,O′-(2-((((2-(diethylamino)ethyl)carbamoyl)oxy)methyl)propane-1,3-diyl) di(heptadecan-9-yl) diadipate] | – | – | 99% | pKa ([1]; read-out: pKa): 6.4

Continued, in another order:

Row | pKa [1, 3] | % E (encapsulation efficiency) [2, 4] | % E (encapsulation efficiency) [2, 5] | SMILES | further results
11 | 6.75 | 98% | – | CCCCC/C=C\C/C=C\CCCCCCCC(=O)OCC(CCCCCCCCC(=O)OC(CCCCCCCC)CCCCCCCCC)COC(=O)CCC(CCCC)OC(=O)NCCN1CCCC1 (centres unmarked) [Compound 27, 11-(octadecan-9-yloxy)-11-oxo-2-(((4-(((2-(pyrrolidin-1-yl)ethyl)carbamoyl)oxy)octanoyl)oxy)methyl)undecyl (9Z,12Z)-octadeca-9,12-dienoate] | –
12 | – | – | 99% | CCCCCCCCC(CCCCCCCC)OC(=O)CCCCCCC(=O)OCC(CC)(COC(=O)CCCCCCC(=O)OC(CCCCCCCC)CCCCCCCC)COC(=O)NCCN(CC)CC [Compound 66, O′1,O1-(2-((((2-(diethylamino)ethyl)carbamoyl)oxy)methyl)-2-ethylpropane-1,3-diyl) 8,8′-di(heptadecan-9-yl) di(octanedioate)] | pKa ([1]; read-out: pKa): 6.1
13 | 6.49 | 92% and 95% | – | CCCCC/C=C\C/C=C\CCCCCCCCC(COC(=O)CCCCCC(=O)OC(CCCCCCCC)CCCCCCCC)COC(=O)NCCN(CC)CC (centres unmarked) [Compound 23, 1-((11Z,14Z)-2-((((2-(diethylamino)ethyl)carbamoyl)oxy)methyl)icosa-11,14-dien-1-yl) 7-(heptadecan-9-yl) heptanedioate] | –
14 | – | 83% and 82% | – | CCCCC/C=C\C/C=C\CCCCCCCC(=O)OCC(COC(=O)CCCCCC(=O)OC(CCCCCCCC)CCCCCCCC)COC(=O)NCCN(CC)CC (centres unmarked) [Compound 59] | pKa [1, 6]: 6.8
15 | 6.44 | 98% | – | CCCCC/C=C\C/C=C\CCCCCCCC(=O)OCC(CCCCCCCCC(=O)OC(CCCCCCCC)CCCCCCCCC)COC(=O)CCC(CCCCCCCC)OC(=O)NCCN1CCCC1 (centres unmarked) [Compound 25, 11-(octadecan-9-yloxy)-11-oxo-2-(((4-(((2-(pyrrolidin-1-yl)ethyl)carbamoyl)oxy)dodecanoyl)oxy)methyl)undecyl (9Z,12Z)-octadeca-9,12-dienoate] | –
16 | – | – | 99% | CCCCCCCCC(CCCCCCCC)OC(=O)CCCCCCC(=O)OCC(CC)(COC(=O)CCCCCCC(=O)OC(CCCCCCCC)CCCCCCCC)COC(=O)OCCCN1CCCC1 [Compound 67, O′1,O1-(2-ethyl-2-((((3-(pyrrolidin-1-yl)propoxy)carbonyl)oxy)methyl)propane-1,3-diyl) 8,8′-di(heptadecan-9-yl) di(octanedioate)] | pKa ([1]; read-out: pKa): 6.2
17 | 6.82 | 96% | – | CCCCC/C=C\C/C=C\CCCCCCCC(=O)OCC(CCCCC(=O)OC(CCCC)CCCC)COC(=O)NCCN(CC)CC (centres unmarked) [Compound 12, 2-((((2-(diethylamino)ethyl)carbamoyl)oxy)methyl)-7-(nonan-5-yloxy)-7-oxoheptyl (9Z,12Z)-octadeca-9,12-dienoate] | –
